Experiment [1] addresses GlunN1/GluN2A glutamate receptors (Homo sapiens (Human), UniProt Q05586+Q12879). The experiment can be described thus: Whole-cell patch clamp of mammalian cells (Ionworks Barracuda), positive allosteric modulation, GluN1/GluN2A. Type of experiment: cell-based. A digest of the protocol:
(§1)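 Perforated-patch whole-cell recording, holding −70 mV, −40 mV during application; Cs-based internal pH 7.2, external with 5 mM CaCl2 pH 7.4. Test article pre-applied alone 5 min, then co-applied with EC20 L-glutamate plus 30 μM glycine. EC50 from Hill fit of % activation over the EC20 current.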
For orientation: The patch-clamp technique gives a direct electrical read-out from membranes.

The target in experiment [2] is GluN2B glutamate receptors (Homo sapiens (Human), UniProt Q05586+Q13224). The experiment in a line: Whole-cell patch clamp of mammalian cells (Ionworks Barracuda), positive allosteric modulation, GluN2B. Type of experiment: cell-based. The conditions noted are these: for Emax: read-out: Avg Emax 2B (%). A digest of the protocol:
as §1

Where [3] appears, read: HEK293 cells, % potentiation of current elicited with EC20 L-glutamate and 30 μM glycine, read-out: Avg Emax 2A (%).
Where [4] appears, read: HEK293 cells, co-application with EC20 L-glutamate and 30 μM glycine, 8-point concentration-response, read-out: Avg EC50 2A.
Setting [5] is: % potentiation of current elicited with EC20 L-glutamate and 30 μM glycine.
The mark [6] stands for this setting: co-application with EC20 L-glutamate and 30 μM glycine, 8-point concentration-response, read-out: Avg EC50 2B.
[7] abbreviates: HEK293, read-out: Avg Emax 2A (%).

Read-outs that look alike come from different tables or passages of the source.

Usually Emax stands for the size of the effect at its maximum, as opposed to the concentration needed. For orientation: EC50 means the concentration that produces a half-maximal response.

Chain of GluN2B glutamate receptors (Q13224 27-1484, other chains not shown): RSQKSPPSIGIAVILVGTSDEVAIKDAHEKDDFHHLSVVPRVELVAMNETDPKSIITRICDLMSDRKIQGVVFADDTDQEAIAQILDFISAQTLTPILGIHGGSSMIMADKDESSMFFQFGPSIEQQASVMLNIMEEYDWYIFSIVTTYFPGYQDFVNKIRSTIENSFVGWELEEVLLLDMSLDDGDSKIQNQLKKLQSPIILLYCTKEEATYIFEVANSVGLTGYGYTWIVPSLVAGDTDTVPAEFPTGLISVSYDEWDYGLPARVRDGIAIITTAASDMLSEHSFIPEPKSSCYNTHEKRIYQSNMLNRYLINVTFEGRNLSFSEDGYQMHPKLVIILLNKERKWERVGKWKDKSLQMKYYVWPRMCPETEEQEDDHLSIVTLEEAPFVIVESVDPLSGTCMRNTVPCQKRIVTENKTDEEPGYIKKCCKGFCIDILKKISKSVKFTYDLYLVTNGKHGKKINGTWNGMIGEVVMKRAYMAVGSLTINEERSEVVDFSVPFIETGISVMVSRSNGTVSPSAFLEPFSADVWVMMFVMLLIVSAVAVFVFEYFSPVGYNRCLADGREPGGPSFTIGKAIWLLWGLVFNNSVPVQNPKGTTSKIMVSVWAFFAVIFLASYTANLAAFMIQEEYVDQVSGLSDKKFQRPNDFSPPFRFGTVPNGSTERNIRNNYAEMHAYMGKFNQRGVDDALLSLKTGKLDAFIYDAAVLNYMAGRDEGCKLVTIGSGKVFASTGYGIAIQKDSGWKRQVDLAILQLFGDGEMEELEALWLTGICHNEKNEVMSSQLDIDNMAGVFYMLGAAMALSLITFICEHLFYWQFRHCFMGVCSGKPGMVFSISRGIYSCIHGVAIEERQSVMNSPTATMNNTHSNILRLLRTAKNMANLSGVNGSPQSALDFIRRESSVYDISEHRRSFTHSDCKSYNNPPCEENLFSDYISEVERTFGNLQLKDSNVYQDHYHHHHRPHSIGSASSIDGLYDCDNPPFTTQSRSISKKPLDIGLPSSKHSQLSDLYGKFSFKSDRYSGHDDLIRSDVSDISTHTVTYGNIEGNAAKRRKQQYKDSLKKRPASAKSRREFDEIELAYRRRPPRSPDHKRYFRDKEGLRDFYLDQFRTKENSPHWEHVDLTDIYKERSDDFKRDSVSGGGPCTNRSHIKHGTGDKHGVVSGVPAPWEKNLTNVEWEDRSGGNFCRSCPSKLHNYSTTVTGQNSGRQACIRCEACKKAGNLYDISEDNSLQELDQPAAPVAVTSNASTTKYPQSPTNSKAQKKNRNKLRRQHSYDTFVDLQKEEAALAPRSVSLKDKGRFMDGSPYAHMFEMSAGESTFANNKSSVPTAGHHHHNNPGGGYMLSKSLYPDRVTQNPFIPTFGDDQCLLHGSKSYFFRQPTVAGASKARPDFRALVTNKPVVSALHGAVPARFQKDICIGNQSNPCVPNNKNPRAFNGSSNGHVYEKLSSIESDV
Chain of GlunN1/GluN2A glutamate receptors (Q12879 23-1464, other chains not shown): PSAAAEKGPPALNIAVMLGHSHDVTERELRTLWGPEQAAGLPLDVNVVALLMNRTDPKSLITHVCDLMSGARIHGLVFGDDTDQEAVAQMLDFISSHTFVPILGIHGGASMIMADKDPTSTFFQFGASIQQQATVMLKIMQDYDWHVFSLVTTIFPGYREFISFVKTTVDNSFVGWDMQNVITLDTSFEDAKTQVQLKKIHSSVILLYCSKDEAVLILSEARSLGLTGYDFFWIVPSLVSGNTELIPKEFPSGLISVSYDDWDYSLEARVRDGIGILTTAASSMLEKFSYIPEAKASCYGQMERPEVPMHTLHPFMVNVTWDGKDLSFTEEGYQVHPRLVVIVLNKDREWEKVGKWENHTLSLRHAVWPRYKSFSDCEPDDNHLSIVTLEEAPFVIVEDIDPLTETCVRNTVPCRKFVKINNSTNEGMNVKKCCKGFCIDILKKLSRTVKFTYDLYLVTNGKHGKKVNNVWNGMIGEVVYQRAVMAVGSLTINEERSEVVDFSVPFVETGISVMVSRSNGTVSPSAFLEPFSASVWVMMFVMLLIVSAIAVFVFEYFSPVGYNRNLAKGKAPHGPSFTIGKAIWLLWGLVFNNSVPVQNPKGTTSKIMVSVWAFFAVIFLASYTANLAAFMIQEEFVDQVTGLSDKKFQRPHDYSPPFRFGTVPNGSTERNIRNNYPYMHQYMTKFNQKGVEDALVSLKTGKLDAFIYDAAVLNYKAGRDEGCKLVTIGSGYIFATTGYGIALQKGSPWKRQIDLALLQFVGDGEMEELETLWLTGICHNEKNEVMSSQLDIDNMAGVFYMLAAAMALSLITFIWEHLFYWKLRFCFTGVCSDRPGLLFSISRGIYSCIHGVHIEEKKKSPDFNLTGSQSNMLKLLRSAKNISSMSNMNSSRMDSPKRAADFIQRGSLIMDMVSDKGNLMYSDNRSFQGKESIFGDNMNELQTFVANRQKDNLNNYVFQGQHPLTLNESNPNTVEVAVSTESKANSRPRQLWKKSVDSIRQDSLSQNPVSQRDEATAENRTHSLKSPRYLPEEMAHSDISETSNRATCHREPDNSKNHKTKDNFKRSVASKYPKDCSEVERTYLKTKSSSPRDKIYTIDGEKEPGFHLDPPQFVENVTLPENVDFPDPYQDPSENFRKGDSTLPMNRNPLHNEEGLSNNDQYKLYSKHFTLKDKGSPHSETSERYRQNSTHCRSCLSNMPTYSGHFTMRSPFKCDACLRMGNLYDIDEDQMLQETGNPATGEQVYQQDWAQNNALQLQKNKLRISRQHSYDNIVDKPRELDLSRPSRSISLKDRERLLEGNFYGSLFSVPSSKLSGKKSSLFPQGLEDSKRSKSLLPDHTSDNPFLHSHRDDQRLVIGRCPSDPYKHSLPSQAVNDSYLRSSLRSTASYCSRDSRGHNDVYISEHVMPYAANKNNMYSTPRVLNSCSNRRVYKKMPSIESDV

As for `CC[C@]1(O)CC[C@H]2[C@@H](CC[C@@H]3[C@@H]2CC[C@]2(C)[C@@H]([C@H](C)CCCC4(O)CCC(F)(F)CC4)CC[C@@H]32)C1` [Compound 9813], the maximum response (Emax) in experiment [1] (setting [3]) amounted to 68.7%; in experiment [2] (setting [5]) it was 99.9%. The EC50 in experiment [1] (setting [4]) was determined as 469 nM; in experiment [2] (setting [6]), 268 nM.

On to `CC[C@]1(O)CC[C@H]2C(=CC[C@@H]3[C@@H]2CC[C@]2(C)[C@@H]([C@H](C)CCC[C@H](C)O)CC[C@@H]32)C1` [Compound 9911], for which the maximal effect (Emax) was 234% in experiment [1] (setting [3]) and 326% in experiment [2] (setting [5]).

For `CC[C@]1(O)CC[C@H]2C(=CC[C@@H]3[C@@H]2CC[C@]2(C)[C@@H]([C@H](C)CCCC(O)C(C)(C)C)CC[C@@H]32)C1` (stereo partly drawn) [Compound 10012], the maximal effect (Emax) was determined as 154% in experiment [1] (setting [3]) and 168% in experiment [2] (setting [5]). The EC50 in experiment [1] (setting [4]) is 790 nM; in experiment [2] (setting [6]), 910 nM.

Consider `CC[C@]1(O)CC[C@H]2C(=CC[C@@H]3[C@@H]2CC[C@]2(C)[C@@H]([C@H](C)CCC[C@@H](O)C(C)(C)C)CC[C@@H]32)C1` [Compound 10042], for which the concentration for a half-maximal effect (EC50) in experiment [1] is over 10000 nM; in experiment [2] it was 1880 nM. The maximal effect (Emax) in experiment [1] (setting [3]) turned out to be 65.9%; in experiment [2] (setting [5]) it was 113%.

For `CC[C@]1(O)CC[C@H]2C(=CC[C@@H]3[C@@H]2CC[C@]2(C)[C@@H]([C@H](C)CCC[C@H](O)C(C)(C)C)CC[C@@H]32)C1` [Compound 10043], the EC50 turned out to be 897 nM in experiment [1] and 1070 nM in experiment [2]. In addition, the values for the Emax in experiment [1] (setting [3]) and in experiment [2] (setting [5]) were 146% and 211%, respectively.

For `CC[C@]1(O)CC[C@H]2C(=CC[C@@H]3[C@@H]2CC[C@]2(C)[C@@H]([C@H](C)CCC[C@@H](O)C(C)C)CC[C@@H]32)C1` [Compound 10114], the Emax in experiment [1] (setting [3]) is 146%; in experiment [2] (setting [5]), 179%.

Consider `CC[C@]1(O)CC[C@H]2C(=CC[C@@H]3[C@@H]2CC[C@]2(C)[C@@H]([C@H](C)CCC[C@H](O)C(C)C)CC[C@@H]32)C1` [Compound 10115], for which the Emax in experiment [1] (setting [3]) came to 192%; in experiment [2] (setting [5]) it was 226%. The EC50 in experiment [1] (setting [4]) amounted to 556 nM; in experiment [2] (setting [6]) it was 458 nM.

For `CC[C@]1(O)CC[C@H]2C(=CC[C@@H]3[C@@H]2CC[C@]2(C)[C@@H]([C@H](C)CCCC4(O)CCOCC4)CC[C@@H]32)C1` [Compound 10216], the Emax in experiment [1] (setting [3]) turned out to be 79.3%; in experiment [2] (setting [5]) it was 121%. Besides, the figures for the EC50 in experiment [1] (setting [4]) and in experiment [2] (setting [6]) were 1200 nM and 446 nM, respectively.

As to `CC[C@]1(O)CC[C@H]2C(=CC[C@@H]3[C@@H]2CC[C@]2(C)[C@@H]([C@H](C)CCCC4(O)CCC(C)(C)CC4)CC[C@@H]32)C1` [Compound 10317], the Emax is 56.7% in experiment [1] (setting [3]) and 59.9% in experiment [2] (setting [5]).

As for `CC[C@]1(O)CC[C@H]2C(=CC[C@@H]3[C@@H]2CC[C@]2(C)[C@@H]([C@H](C)CCC[C@@H](O)C(F)(F)F)CC[C@@H]32)C1` [Compound 10456], the Emax in experiment [1] (setting [3]) stood at 231%; in experiment [2] (setting [5]), 266%. Besides, the EC50 was 240 nM in experiment [1] (setting [4]) and 209 nM in experiment [2] (setting [6]).

Take `CC[C@]1(O)CC[C@H]2C(=CC[C@@H]3[C@@H]2CC[C@]2(C)[C@@H]([C@H](C)CCC[C@](C)(O)C(F)(F)F)CC[C@@H]32)C1` [Compound 10557]: the results for the Emax in experiment [1] (setting [3]) and in experiment [2] (setting [5]) were 190% and 202%, respectively. The EC50 in experiment [1] (setting [4]) was 287 nM; in experiment [2] (setting [6]), 192 nM.

For the compound `CCC(O)CCC[C@@H](C)[C@H]1CC[C@H]2[C@@H]3CC=C4C[C@](O)(CC)CC[C@@H]4[C@H]3CC[C@]12C` (stereo partly drawn) [Compound 10673], the Emax in experiment [1] (setting [7]) amounted to 216%; in experiment [2] it was 214%.

`CC[C@]1(O)CC[C@H]2C(=CC[C@@H]3[C@@H]2CC[C@]2(C)[C@@H]([C@H](C)CCCC4(O)CC4)CC[C@@H]32)C1` [Compound 10790]: the Emax came out at 160% in experiment [1] (setting [3]) and 246% in experiment [2] (setting [5]). Further, the EC50 is 204 nM in experiment [1] (setting [4]) and 271 nM in experiment [2] (setting [6]).

For `CC[C@@H](O)CCC[C@@H](C)[C@H]1CC[C@H]2[C@@H]3CC=C4C[C@](O)(CC)CC[C@@H]4[C@H]3CC[C@]12C` [Compound 10841], the EC50 in experiment [1] and in experiment [2] was over 10000 nM each time. The figures for the maximum response (Emax) in experiment [1] (setting [7]) and in experiment [2] were 15.6% and 30.1%, respectively.

As for `CC[C@H](O)CCC[C@@H](C)[C@H]1CC[C@H]2[C@@H]3CC=C4C[C@](O)(CC)CC[C@@H]4[C@H]3CC[C@]12C` [Compound 10949], the Emax in experiment [1] (setting [7]) is 97.4%; in experiment [2], 147%.

`C[C@H](CCCC1(O)CCC(F)(F)CC1)[C@H]1CC[C@H]2[C@@H]3CC[C@H]4C[C@](O)(C(F)(F)F)CC[C@]4(C)[C@H]3CC[C@]12C` [Compound 11786]: the Emax in experiment [1] (setting [3]) is 152%; in experiment [2] (setting [5]), 151%. Further, the values for the EC50 in experiment [1] (setting [4]) and in experiment [2] (setting [6]) were 584 nM and 1010 nM, respectively.

Regarding `CC(C)[C@H](O)CCC[C@@H](C)[C@H]1CC[C@H]2[C@@H]3CC[C@H]4C[C@](O)(C(F)(F)F)CC[C@]4(C)[C@H]3CC[C@]12C` [Compound 11828], the values for the EC50 in experiment [1] and in experiment [2] were 147 nM and 76.9 nM, respectively. The values for the Emax in experiment [1] (setting [7]) and in experiment [2] were 142% and 114%, respectively.

Turning to `C[C@H](CCC[C@H](O)C(F)(F)F)[C@H]1CC[C@H]2[C@@H]3CC[C@H]4C[C@](O)(C(F)(F)F)CC[C@]4(C)[C@H]3CC[C@]12C` [Compound 11934], the Emax in experiment [1] (setting [3]) was found to be 113%; in experiment [2] (setting [5]), 70%.

Turning to `C[C@H](CCC[C@@H](O)C(C)(C)C)[C@H]1CC[C@H]2[C@@H]3CC[C@H]4C[C@](O)(C(F)(F)F)CC[C@]4(C)[C@H]3CC[C@]12C` [Compound 12055], the Emax in experiment [1] (setting [3]) stood at 114%; in experiment [2] (setting [5]) it was 185%.

In the case of `C[C@H](CCC[C@H](O)C(C)(C)C)[C@H]1CC[C@H]2[C@@H]3CC[C@H]4C[C@](O)(C(F)(F)F)CC[C@]4(C)[C@H]3CC[C@]12C` [Compound 12156], the Emax stood at 43.2% in experiment [1] (setting [3]) and 111% in experiment [2] (setting [5]).

Regarding `C[C@H](CCC1(O)CCC(C)(C)CC1)[C@H]1CC[C@H]2[C@@H]3CC[C@H]4C[C@](O)(C(F)(F)F)CC[C@]4(C)[C@H]3CC[C@]12C` [Compound E-2817], the Emax was found to be 29.9% in experiment [1] (setting [3]) and 20.4% in experiment [2] (setting [5]).

The record behind these values is patent US11149054B2, “Oxysterols and methods of use thereof” (Sage Therapeutics, Inc., priority 2016, dated 2021).
